According to ChEMBL document CHEMBL1201862, “PubChem BioAssay data set” (2004):
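These data come from cells grown in 96-well plates and exposed to compound for 48 hours at five concentrations. GI50 = concentration required for 50% inhibition of growth.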 The source made the active and inactive calls. No stated cut-off is given here; in the data, active = GI50 up to about 1.1 µM and inactive = higher.

Key:
Test in all cases: NCI tumour cell line growth inhibition, 48 h
OVCAR-3 = tested on: OVCAR-3
SK-OV-3 = tested on: SK-OV-3
MOLT-4 = tested on: MOLT-4
RXF 631 = tested on: RXF 631
SNB-78 = tested on: SNB-78
HCC 2998 = tested on: HCC 2998
UACC-62 = tested on: UACC-62
A498 = tested on: A498
COLO 205 = tested on: COLO 205
ACHN = tested on: ACHN
Malme-3M = tested on: Malme-3M
HCT-15 = tested on: HCT-15
K562 = tested on: K562
NCI-H522 = tested on: NCI-H522
NCI-H226 = tested on: NCI-H226
SF-539 = tested on: SF-539
UACC-257 = tested on: UACC-257
LOX IMVI = tested on: LOX IMVI
XF498 = tested on: XF498
NCI-H460 = tested on: NCI-H460
M14 = tested on: M14
SK-MEL-5 = tested on: SK-MEL-5
786-0 = tested on: 786-0
SF-295 = tested on: SF-295
LXFL 529 = tested on: LXFL 529
SNB-19 = tested on: SNB-19
HCT-116 = tested on: HCT-116
EKVX = tested on: EKVX
SR = tested on: SR
NCI-H23 = tested on: NCI-H23
U-251 = tested on: U-251
RXF 393 = tested on: RXF 393
M19-MEL = tested on: M19-MEL
HOP-62 = tested on: HOP-62
OVCAR-4 = tested on: OVCAR-4
RPMI-8226 = tested on: RPMI-8226
SNB-75 = tested on: SNB-75
HL-60 = tested on: HL-60
CCRF-CEM = tested on: CCRF-CEM
SW-620 = tested on: SW-620
CAKI-1 = tested on: CAKI-1
HT-29 = tested on: HT-29
DLD-1 = tested on: DLD-1
TK-10 = tested on: TK-10
SF-268 = tested on: SF-268
KM-20L2 = tested on: KM-20L2
HOP-92 = tested on: HOP-92
SN12C = tested on: SN12C
DMS-273 = tested on: DMS-273
UO-31 = tested on: UO-31
SK-MEL-28 = tested on: SK-MEL-28
A549 = tested on: A549
OVCAR-8 = tested on: OVCAR-8
IGROV-1 = tested on: IGROV-1
KM12 = tested on: KM12
HOP-18 = tested on: HOP-18
SK-MEL-2 = tested on: SK-MEL-2
OVCAR-5 = tested on: OVCAR-5
DMS-114 = tested on: DMS-114

`CC(C)(C)c1nc2c(o1)/C(=N\c1ccccc1)c1ccccc1C2=O` was tested, and the GI50 (OVCAR-3) was 1.33 µM (inactive), the GI50 (SK-OV-3) was 34.5 µM (inactive) and the GI50 (MOLT-4) was 3.95 µM (inactive). The GI50 (RXF 631) was 22.5 µM (inactive), the GI50 (SNB-78) was 4.27 µM (inactive) and the GI50 (HCC 2998) was 18.6 µM (inactive). For the same compound, the GI50 (UACC-62) was 2.17 µM (inactive), the GI50 (A498) was 17.5 µM (inactive) and the GI50 (COLO 205) was 32.3 µM (inactive). For the same compound, the GI50 (ACHN) was 4.69 µM (inactive), the GI50 (Malme-3M) was 1.4 µM (inactive) and the GI50 (HCT-15) was 4.25 µM. For the same compound, the GI50 (K562) was 3.55 µM (inactive), the GI50 (NCI-H522) was 2.91 µM (inactive) and the GI50 (NCI-H226) was 9.42 µM (inactive). For the same compound, the GI50 (SF-539) was 2.99 µM (inactive), the GI50 (UACC-257) was 1.72 µM (inactive) and the GI50 (LOX IMVI) was 0.603 µM (active). For the same compound, the GI50 (XF498) was 3.68 µM (inactive), the GI50 (NCI-H460) was 6.12 µM (inactive) and the GI50 (M14) was 2.33 µM (inactive). The GI50 (SK-MEL-5) was 1.42 µM (inactive), the GI50 (786-0) was 24.4 µM (inactive) and the GI50 (SF-295) was 3.99 µM (inactive). The GI50 (LXFL 529) was 5.48 µM (inactive), the GI50 (SNB-19) was 8.17 µM (inactive) and the GI50 (HCT-116) was 3.23 µM (inactive). For the same compound, the GI50 (EKVX) was 13 µM (inactive), the GI50 (SR) was 3.94 µM (inactive) and the GI50 (NCI-H23) was 1.44 µM (inactive). For the same compound, the GI50 (U-251) was 3.85 µM (inactive), the GI50 (RXF 393) was 4.91 µM (inactive) and the GI50 (M19-MEL) was 0.718 µM (active). The GI50 (HOP-62) was 17.3 µM (inactive), the GI50 (OVCAR-4) was 2.74 µM (inactive) and the GI50 (RPMI-8226) was 3.94 µM (inactive). For the same compound, the GI50 (SNB-75) was 5.61 µM (inactive), the GI50 (HL-60) was 2.87 µM (inactive) and the GI50 (CCRF-CEM) was 5.61 µM (inactive). The GI50 (SW-620) was 4.47 µM (inactive), the GI50 (CAKI-1) was 12 µM (inactive) and the GI50 (HT-29) was 22.7 µM (inactive). The GI50 (DLD-1) was 4.14 µM (inactive), the GI50 (TK-10) was 30.2 µM (inactive) and the GI50 (SF-268) was 3.55 µM (inactive). The GI50 (KM-20L2) was 27.8 µM (inactive), the GI50 (HOP-92) was 4.69 µM (inactive) and the GI50 (SN12C) was 3.64 µM (inactive). The GI50 (DMS-273) was 3.71 µM (inactive), the GI50 (UO-31) was 5.89 µM (inactive) and the GI50 (SK-MEL-28) was 4.4 µM (inactive). The GI50 (A549) was 7.6 µM (inactive), the GI50 (OVCAR-8) was 2.72 µM (inactive) and the GI50 (IGROV-1) was 6.87 µM (inactive). The GI50 (KM12) was 11.7 µM (inactive), the GI50 (HOP-18) was 9.53 µM (inactive) and the GI50 (SK-MEL-2) was 2.53 µM (inactive). The GI50 (OVCAR-5) was 13.6 µM (inactive).

`N#CC1=C(c2ccccc2)C(O)(c2ccccc2)NC1=O` (centres undefined) was tested, and the GI50 (OVCAR-3) was > 100 µM (inactive), the GI50 (SK-OV-3) was 32.7 µM (inactive) and the GI50 (MOLT-4) was > 100 µM (inactive). The GI50 (RXF 631) was 99.8 µM (inactive), the GI50 (HCC 2998) was > 100 µM (inactive) and the GI50 (UACC-62) was > 100 µM (inactive). For the same compound, the GI50 (A498) was 24.6 µM (inactive), the GI50 (DMS-114) was > 100 µM (inactive) and the GI50 (COLO 205) was > 100 µM (inactive). The GI50 (ACHN) was 37.5 µM (inactive), the GI50 (Malme-3M) was 25.2 µM (inactive) and the GI50 (HCT-15) was over 100 µM. For the same compound, the GI50 (K562) was > 100 µM (inactive), the GI50 (NCI-H226) was 51.5 µM (inactive) and the GI50 (SF-539) was 27.7 µM (inactive). The GI50 (UACC-257) was > 100 µM (inactive), the GI50 (LOX IMVI) was > 100 µM (inactive) and the GI50 (XF498) was > 100 µM (inactive). For the same compound, the GI50 (NCI-H460) was 58.3 µM (inactive), the GI50 (M14) was 52.4 µM (inactive) and the GI50 (SK-MEL-5) was 68.1 µM (inactive). For the same compound, the GI50 (786-0) was > 100 µM (inactive), the GI50 (SF-295) was 37.4 µM (inactive) and the GI50 (LXFL 529) was > 100 µM (inactive). For the same compound, the GI50 (HCT-116) was > 100 µM (inactive), the GI50 (EKVX) was > 100 µM (inactive) and the GI50 (SR) was 44.2 µM (inactive). For the same compound, the GI50 (NCI-H23) was 42 µM (inactive), the GI50 (U-251) was > 100 µM (inactive) and the GI50 (RXF 393) was > 100 µM (inactive). For the same compound, the GI50 (M19-MEL) was > 100 µM (inactive), the GI50 (HOP-62) was > 100 µM (inactive) and the GI50 (OVCAR-4) was > 100 µM (inactive). For the same compound, the GI50 (RPMI-8226) was 75 µM (inactive), the GI50 (SNB-75) was > 100 µM (inactive) and the GI50 (HL-60) was > 100 µM (inactive). For the same compound, the GI50 (CCRF-CEM) was 70.5 µM (inactive), the GI50 (SW-620) was > 100 µM (inactive) and the GI50 (CAKI-1) was > 100 µM (inactive). The GI50 (HT-29) was 41.1 µM (inactive), the GI50 (DLD-1) was 71.3 µM (inactive) and the GI50 (TK-10) was > 100 µM (inactive). For the same compound, the GI50 (SF-268) was > 100 µM (inactive), the GI50 (KM-20L2) was 47.5 µM (inactive) and the GI50 (HOP-92) was 19.5 µM (inactive). For the same compound, the GI50 (SN12C) was 48.3 µM (inactive), the GI50 (DMS-273) was > 100 µM (inactive) and the GI50 (UO-31) was 82.8 µM (inactive). The GI50 (SK-MEL-28) was > 100 µM (inactive), the GI50 (A549) was > 100 µM (inactive) and the GI50 (OVCAR-8) was > 100 µM (inactive). For the same compound, the GI50 (IGROV-1) was > 100 µM (inactive), the GI50 (KM12) was > 100 µM (inactive) and the GI50 (HOP-18) was 31.7 µM (inactive). For the same compound, the GI50 (SK-MEL-2) was 99.1 µM (inactive) and the GI50 (OVCAR-5) was 39.3 µM (inactive).
